Measured values from patent publication US9138431B2, “Methods of treatment of histamine H-4 receptor-related pruritus” (BRIDGE PHARMA, INC., priority 2013, dated 2015).
Read-outs that look alike come from different tables or passages of the source.

How the values were obtained:
[1] = test system: histamine-induced pruritus; experiment: Antipruritic activity, histamine-induced pruritus in mice; assay type: in vivo, CD-1 mice; settings: for Inhibition of histamine-induced pruritus (bouts of scratches): oral dosing 60 min before intradermal histamine 300 nmol, references 20 mg/kg, norketotifen escalating doses
Procedure: Antipruritic effects were tested in vivo in CD-1 mice, females, 10-12 weeks, according to methods known in the art. The hair was clipped over the rostral part of the back at the interscapular level of the mice one day before the dosing. Before the testing, the mice were placed in individual clear plastic cages for at least one hour for acclimation. After fasting for 1.5 hours, the animals were dosed orally with the test article, dissolved in a vehicle consisting of 1% methylcellulose/water, 10 mL/kg body weight. Sixty minutes after the oral dosing, an intradermal injection of histamine (300 nmol in 20 μl phosphate buffered saline (PBS), pH 7.4) was administered. Immediately after the histamine injection, the bouts of scratches were counted for 40 min. Scratching induced by the histamine vehicle PBS served as control.
Norketotifen was tested in escalating doses and in a supramaximal dose of 100 mg/kg.

[2] = test system: pruritus induced by interleukin-31 (IL-31); settings: recent study; cited from earlier work
[3] = test system: human granulocytes (leukocytes; buffy coat); experiment: Inhibition of histamine release from human granulocytes (A23187-induced); assay type: cell-based; settings: for IC50: Homo sapiens, Leukocyte, 20 min, histamine release induced by A23187 5 μM, 20 min/37° C., read-out: Inhibition of mediator release IC50
Procedure: Histamine is excessively released from granulocytes in patients with pruritic diseases. The inhibition of histamine release from human granulocytes (leukocytes; buffy coat) by test articles was studied. Leukocytes were obtained from blood from healthy human volunteers and release of histamine was induced by incubation (20 min/37° C.) of the buffy coats with the calcium ionophore A23187 (5 μM) in the presence or absence of a test article. Histamine was analyzed by enzyme-immune assays, using commercially available kits and a microplate reader (MRX, Dynatech). The test articles were evaluated, in duplicate, at five concentrations.

[4] = molecular target: human histamine H-1 Receptor (Homo sapiens (Human), UniProt P35367); experiment: Binding to histamine H-1 receptors; settings: read-out: Human H-1 receptors IC50, heading: Human H-1 receptors IC50
Chain of human histamine H-1 Receptor (P35367 whole entry): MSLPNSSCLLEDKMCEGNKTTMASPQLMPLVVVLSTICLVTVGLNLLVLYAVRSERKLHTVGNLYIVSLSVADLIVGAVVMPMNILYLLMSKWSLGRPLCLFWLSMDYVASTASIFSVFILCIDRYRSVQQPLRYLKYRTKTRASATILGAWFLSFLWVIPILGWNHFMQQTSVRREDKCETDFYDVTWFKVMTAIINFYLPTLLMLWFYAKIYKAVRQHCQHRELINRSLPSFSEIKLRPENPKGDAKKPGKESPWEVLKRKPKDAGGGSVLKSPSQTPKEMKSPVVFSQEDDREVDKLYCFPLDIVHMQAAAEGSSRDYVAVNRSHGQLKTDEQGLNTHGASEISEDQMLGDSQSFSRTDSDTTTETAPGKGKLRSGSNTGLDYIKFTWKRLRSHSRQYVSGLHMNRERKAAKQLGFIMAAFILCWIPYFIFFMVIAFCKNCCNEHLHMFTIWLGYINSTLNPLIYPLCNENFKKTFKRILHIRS
Procedure: (§1) Affinities of the test compounds for peripheral human histamine H-1-receptors were assessed using receptor-binding assays. The specific binding of the radioactive ligand to the receptor was defined as the difference between total binding and nonspecific binding, determined in the presence of excess unlabeled ligand. Ki-values were determined according to the Cheng-Prusoff equation.

[5] = Repeat-dose pharmacological and toxicological studies in dogs (sedation, tolerability); assay type: in vivo; settings: daily doses up to 20 mg/kg/day
Description: Dogs vomit spontaneously for a variety of benign reasons—to expel unwanted content from their stomach, as a result of gastric irritation or in response to colonic irritation. In recent toxicological studies in dogs of various drugs, including isomeric norketotifen, vomiting occurred in both control groups and drug groups and may have been treatment-related, rather than drug-related. The unexpectedly low systemic toxicity of norketotifen and the isomers thereof is believed to be due to low systemic (plasma) concentrations, caused by the fact that norketotifen and the isomers thereof are not circulating in plasma but are accumulating in the skin, which is the largest organ in the body.

[6] = Sedation in human subjects; assay type: in vivo; settings: doses of 5 mg and 10 mg
[7] = molecular target: human histamine H-4 Receptor (Homo sapiens (Human), UniProt Q9H3N8); experiment: Binding to histamine H-4 receptors ([3H]-histamine ligand); settings: Cheng-Prusoff, read-out: Human H-4 receptor affinity (Ki)
Chain of human histamine H-4 Receptor (Q9H3N8 whole entry): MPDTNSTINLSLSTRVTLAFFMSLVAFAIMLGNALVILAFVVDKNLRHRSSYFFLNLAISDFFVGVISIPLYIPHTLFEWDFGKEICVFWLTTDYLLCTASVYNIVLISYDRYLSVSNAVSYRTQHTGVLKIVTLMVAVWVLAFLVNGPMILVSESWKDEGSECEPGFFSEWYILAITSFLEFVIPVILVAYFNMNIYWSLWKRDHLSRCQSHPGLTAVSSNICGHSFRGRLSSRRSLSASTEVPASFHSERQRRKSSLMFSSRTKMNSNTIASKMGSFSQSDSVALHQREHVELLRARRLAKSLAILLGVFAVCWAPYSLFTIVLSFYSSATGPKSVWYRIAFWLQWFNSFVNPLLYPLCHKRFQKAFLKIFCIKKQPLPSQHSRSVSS
Procedure: as §1, with “H-4-receptors” for “H-1-receptors”, “[^3H]-histamine was used as the ligand in this study and the affinity values” for “Ki-values”

[8] = Dermal drug accumulation after oral administration (plasma and skin PK); assay type: in vivo, beagle dogs; settings: Day 28, oral 8.0 mg/kg/day hydrogen fumarate salt, dogs
Procedure: Five male beagle dogs, weighing 11.2-13.9 kg (2-4 years old) were used in the study. All animals were administered gelatin capsules containing oral doses of the test article 8.0 mg/kg/day as a hydrogen fumarate salt, equal to 5.6 mg/kg/day of the free base. The animals were dosed once daily for four consecutive weeks followed by daily observations for an additional two-week washout period.
Multiple plasma samples and skin biopsies were taken from each dog on Day 1 and Day 28 of drug administration. The plasma and skin samplings were performed at pre-dose, and at 2, 6, 12 and 24 hours post-dose. Plasma and skin samples were also taken intermittently at predetermined intervals during the 28-days dosing period and up to the last day of the study, which was Day 42. Blood samples were taken from v. Cephalica antebrachii. Skin biopsies were taken from the area between the mid ventral to lateral abdominal areas, using a 6 mm (diameter) skin biopsy device (Acu-Punch®, Acuderm® Inc., Fort Lauderdale, Fla. 33309). Multiple plasma and biopsy samples were obtained from each of 4 or 5 dogs. Subcutaneous fat deposits were carefully trimmed from the skin samples and the skin samples were weighed. All plasma and skin samples were kept
The plasma samples and skin biopsy samples were analyzed using LC/MS/MS methodology. All pharmacokinetic analyses were performed using Pharsight WinNonlin® Professional v5.2.1 software.

[9] = test system: histamine-induced pruritus; settings: intradermal histamine, humans and mice; general statement; cited from earlier work

Row | SMILES | Inhibition of histamine-induced pruritus (bouts of scratches) [1] | IC50 [3] [µM] | IC50 [4] [µM] | Ki [7] [µM] | MRT Plasma [8] [h] | t1/2 Plasma [8] [h] | MRT Skin [8] [h] | t1/2 Skin [8] [h] | also measured
1 | CN1CCN(C(=O)c2cc3cc(Cl)ccc3[nH]2)CC1 [JNJ7777120, reference compound] | potently inhibited |  |  |  |  |  |  |  | Inhibition of IL-31-induced pruritus [2]: failed to inhibit
2 | CN1CCC(=C2c3ccccc3CC(=O)c3sccc32)CC1 [Ketotifen, ketotifen, reference compound] |  | 91 |  |  |  |  |  |  | 
3 | O=C1Cc2ccccc2C(=C2CCNCC2)c2ccsc21 [Norketotifen, norketotifen] | dose-dependently inhibiting | 9.2 |  |  |  |  |  |  | Potency relative to ketotifen as inhibitor of histamine release ([3]; human inflammatory cells): approximately 10 times; IC50 ([4]; listed as RS-NORKETOTIFEN): 0.011 µM; Inhibition of histamine-induced pruritus at supramaximal dose ([1]; norketotifen 100 mg/kg oral): complete inhibition; Inhibition of histamine-induced pruritus (bouts of scratches) ([1]; listed as norketotifen): potently inhibited; Sedation or other adverse events, chronic dosing [5]: without causing sedation or other adverse events; Sedation [6]: do not produce sedation
4 | O=C(O)/C=C/C(=O)O.O=C1Cc2ccccc2C(=C2CCNCC2)c2ccsc21 [R-NORKETOTIFEN, R-norketotifen] |  |  | 0.017 | 2.3 | 14.1 | 7.7 | 159.1 | 157.0 | 
5 | O=C1Cc2ccccc2C(=C2CCNCC2)c2ccsc21 [S-NORKETOTIFEN, S-norketotifen] |  |  | 0.023 | 1.1 | 11.3 | 10.9 | 159.0 | 162.7 | 
6 | CC(C)(C(=O)O)c1ccc(C(O)CCCN2CCC(C(O)(c3ccccc3)c3ccccc3)CC2)cc1 (stereo not drawn) [fexofenadine] |  |  |  |  |  |  |  |  | Inhibition of pruritus following histamine injections by H-1 inhibitors [9]: not inhibited
